Columns and labels:
[1] = test system: donor CD4+ T cells; test: Acute graft versus host model: Treg phenotype of alloactivated donor CD4+ T cells; assay type: in vivo, mouse; conditions: B6D2F1 hosts, day 2
Description: FIGS. 14a-14i show AHRL1 induces an AhR-dependent Treg phenotype by a mechanism that is mediated by the AhR in donor CD4+ T cells. The AhR-induced Tregs were identified as the CD4+CD25+CTLA-4+CD62L^low population of T cells. To determine if AHRL1 induced changes in donor CD4+ T cells, AHRL1 was compared with TCDD and the vehicle. On day 0, B6D2F1 host mice in groups of 5 were injected with CFSE-labeled C57BL/6 (H-2^b/b) T cells and given 15 mg/kg of AHRL1, 15 μg/kg of TCDD, or vehicle by i.p. injection. At 24 hours, an additional dose of 7 mg/kg of AHRL1 or vehicle was given. Mice that were treated with TCDD at the time of donor cell transfer were used as positive controls. Splenocytes were isolated on day 2 for phenotypic analysis of the alloresponsive (CFSE-diluted) donor CD4+ T cells. Splenocytes were harvested from the host mice and the CD4+ T cells were identified by flow cytometry.
On day 0, B6D2F1 host mice in groups of 5 were injected with donor T cells obtained from AhR^+/+ or AhR-deficient (AhR^−/−) C57BL/6 mice. Host mice were treated with 2 mg/kg of AHRL1 or vehicle immediately following donor cell transfer and again at 24 hours. […] Thus, the AhR in the CD4+ T cell is the primary target driving the AhR-Treg phenotype.
On day 0, B6D2F1 host mice in groups of 3-5 were injected with C57BL/6 T cells. Mice were immediately treated with 0 mg/kg, 0.4 mg/kg, 2 mg/kg, or 10 mg/kg of AHRL1 and again on day 1. On day 2, expression of markers associated with the AhR-Treg phenotype increased as the dose of AHRL1 increased. Further, dosing generally correlated with degree of activation of AhR as reflected by CYP1A1, CYP1B1, and AHRR expression in lymph nodes from the same mice. The asterisk (*) indicates a p-value of 0.05 relative to vehicle treatment.
FIGS. 16c and 16d show expression of phenotypic markers, CD25+ICOS+CD62L^low and CD25+CTLA-4+, associated with AhR-Tregs in mice treated with AHRL1. Host mice were treated with 10 mg/kg of AHRL1, 11-Cl-BBQ analog, or vehicle on day 0 and day 1 following donor cell transfer. On day 2, the alloactivated CD4+ donor T cells were identified based on CFSE dilution. The percentage of donor cells in each group expressing the Treg markers were derived from flow histograms. The data represents mean±SEM of 5 mice per treatment. […] Analog 1 is statistically different from AHRL1 and analog 4 (p-value=0.05). […], analog 1, and analog 4 are shown to be AhR ligands that are capable of inducing Tregs in vivo. Accordingly, analogs 1 and 4 are expected to have a similar therapeutic effect in a subject as AHRL1 by suppressing an autoimmune response. Additionally, analog 6, analog 7, and other analogs of 11-Cl-BBQ, that are found to be active AhR ligands using the disclosed screening method, are expected to induce Tregs and suppress CTL to provide treatment and/or prevention of immune-mediated diseases.

[2] = test system: NOD mice; test: Flow cytometry of leukocyte composition of pancreas, PLN and spleen of NOD mice; assay type: in vivo, mouse
Description: The leukocyte composition of the pancreas and draining lymph nodes was analyzed at 12, 15, and 20 weeks of age using flow cytometry. Mice were sacrificed at 12, 15, and 20 weeks of age, draining lymph nodes and pancreata were excised, and single cell suspensions were prepared for analysis with flow cytometry. Fc receptors were blocked with rat immunoglobulin G (IgG) acquired from Jackson ImmunoResearch. The cells were stained with the following antibodies: CD4 (RM4, eBioscience), CD8 (53-6.7, eBioscience), CD19 (1D3, eBioscience), CD45 (30-F11, BD Biosciences), Foxp3 (FJK-16s, eBioscience), Nrp1 (3DS304M, eBioscience), CD25 (PC61.5, eBioscience), RORγt (AFKJS-9, eBioscience). For intracellular staining, cells were fixed and permeabilized using a Foxp3 Fixation/Permeabilization buffer acquired from eBioscience (San Diego, Calif.). Data were acquired using a FC-500 flow cytometer (BECKMAN COULTER) and compensated and analyzed using FLOWJO software. Fluorescence minus one (FMO) controls were used for setting gates for analysis.
FIGS. 3a-3f illustrate results comparing the leukocyte composition of the vehicle treated NOD mice to the ARHL1 treated NOD mice from FIG. 2b. The leukocyte composition of the vehicle treated NOD mice to the ARHL1 treated NOD mice was analyzed at 12 weeks of age. Student's t-test was used for analysis. Sample size of n=5-9 mice per group was used. A single asterisk (*) signifies p≤0.05; a double asterisk (**) signifies p≤0.01; a triple asterisk (***) signifies p≤0.001.
FIGS. 4a-4t illustrate results comparing leukocyte composition of draining lymph nodes in vehicle treated, AHRL1 treated, and TCDD treated NOD mice at 12, 15, and 20 weeks of age. Seven-week-old NOD mice were treated with vehicle, AHRL1, or TCDD as described with reference to FIG. 2b. At 12 weeks of age, 15 weeks of age, and 20 weeks of age, the draining lymph nodes were excised from the mice and stained with CD4 antibodies and Foxp3 antibodies. The results were analyzed by flow cytometry and plotted as average +/−standard deviation (s.d.). A sample size of n=5-9 mice per group was used. A single asterisk (*) signifies p≤0.05.

Clc1cc2c(cc1Cl)Oc1cc(Cl)c(Cl)cc1O2 [TCDD, 2,3,7,8-tetrachlorodibenzo-p-dioxin]
total number of alloactivated CD4+CD25+ T cells co-expressing CTLA-4+, ICOS, low CD62L [1]: increased | expression of ICOS on alloactivated donor CD4+ T cells ([1]; AHRL1 15 mg/kg then 7 mg/kg, TCDD 15 μg/kg i.p.): significantly increased | percentage of CD4+Foxp3- cells that were Nrp1+ ([2]; NOD.Foxp3WT mice, 20 weeks of age): decrease | percentage of Foxp3+ cells gated on CD4+ cells ([2]; PLN, 12 weeks of age): higher percentage | percentage of Foxp3+ cells gated on CD4+ cells ([2]; PLN, 15 weeks of age): higher percentage | percentage of Foxp3+ cells gated on CD4+ cells ([2]; PLN, 20 weeks of age): higher percentage | percentage of Foxp3+ cells gated on CD4+ cells ([2]; spleen, 12 weeks of age, vs vehicle): higher percentage | percentage of Foxp3+ cells gated on CD4+ cells ([2]; spleen, 15 weeks of age, vs vehicle): higher percentage | percentage of Foxp3+ cells gated on CD4+ cells ([2]; spleen, 20 weeks of age, vs vehicle): higher percentage
